Results on three compounds are retold here after patent publication US8729060B2, “Macrocyclic polyoxazole compounds and use thereof” (Rutgers, the State University of New Jersey, priority 2007, dated 2014).

For one data set, the system named is LAN1. Particulars: read-out: cytotoxicity IC50; cited from earlier work.
For the next data set, the system named is SK-N-AS. Particulars: read-out: cytotoxicity IC50; cited from earlier work.
The subject of a further data set is MiaPaCa. As to conditions: read-out: cytotoxicity IC50; cited from earlier work.
The next data set deals with K62 leukemia cells. As to conditions: cited from earlier work.
A further data set has as its system LAN5. As to conditions: read-out: cytotoxicity IC50; cited from earlier work.
Data set [1] deals with natural bone marrow CD34-positive cells. Particulars: cited from earlier work.
A further data set deals with telomerase. Particulars: read-out: telomerase inhibitory activity IC50; cited from earlier work.
A further data set concerns WAC2. As to conditions: read-out: cytotoxicity IC50; cited from earlier work.
For data set [2], the system named is human breast cancer cell lines HBC-4, BSY-1, HBC-5, MCF-7, and MDA-MB-231. Particulars: range over HBC-4, BSY-1, HBC-5, MCF-7, MDA-MB-231; cited from earlier work.
For data set [3], the system named is human nasopharyngeal carcinoma KB3-1. Nature of the data set: MTT assay (Test C), human nasopharyngeal carcinoma KB3-1. Format: cell-based. As to conditions: KB 3-1, 96 h, KB3-1, MTT, 4 days, read-out: cytotoxic activity IC50. The method, then: (§1) Test C. Evaluation of G-Quadruplex Stabilizers Using the MTT Assay.
(§2) Cell lines are selected based upon one or more factors including data on their relative telomerase activity, varied organ sites, available comparative data, and their ability to form solid tumors in athymic nude mice. The advantage of an MTT assay is that the cytotoxic/cytostatic activities can be readily determined. Cells are cultured for 4 days at 37° C. followed by addition of MTT (3-[4,5-dimethylthiozol-2-yl]-2,5-diphenyltetrazolium bromide (Sigma) (0.1 mg/ml). Cells are treated with MTT for 3 hrs and then dissolved in 100 μl 100% DMSO. Absorbance is measured at OD570 using a microplate reader (Model 3550 UV from BIO-RAD). The MTT value is normalized to OD570 of cells treated with Cellfectin alone. Stock solutions of each compound are prepared. MTT assays are performed using spectrometric analysis and 96 well plates. Compound 258, a representative compound of formula I, was evaluated against a variety of cell lines using the MTT assay compound.

Data set [4] deals with human lymphoblastoma RPMI 8402. The data set can be described thus: MTT assay (Test C), human lymphoblastoma RPMI 8402. It is filed as cell-based. Particulars: 96 h, RPMI 8402, MTT, 4 days, read-out: cytotoxic activity IC50. The method, then:
as §1, §2

The subject of another data set is murine leukemia P388. Nature of the data set: MTT assay (Test C), murine leukemia P388. Format: cell-based. As to conditions: Mus musculus, 96 h, 4 days, read-out: cytotoxic activity IC50. As to the method:
as §1, §2

In the case of `Cc1oc2nc1-c1nc(co1)-c1nc(co1)-c1nc(co1)-c1nc(co1)-c1nc(co1)C1=NC(CS1)c1nc-2c(C)o1` (stereo not shown) [Telomestatin], the IC50 in the data set with LAN1 is 4 µM; in the data set on SK-N-AS, 800 nM; with MiaPaCa, 500 nM; with LAN5 it was 2500 nM; on telomerase, 5 nM; in the data set with WAC2, 3.2 µM. Also, the “effect on plating efficiency” value with K62 leukemia cells was “does suppress the plating efficiency”. Moreover, in data set [1], the “effect on BFU-E and CFU-GM” value is “much lesser effect”.

For `CC[C@H](C)[C@@H]1NC(=O)c2nc(oc2-c2ccccc2)-c2csc(n2)-c2coc(n2)-c2coc(n2)-c2coc(n2)CNC(=O)[C@@H](C(C)C)NC1=O` [YM-216391], in data set [2], the GI50 is 15 to 33 nM.

Turning to `CC(C)[C@@H]1NC(=O)c2coc(n2)-c2coc(n2)-c2coc(n2)C/C=C/c2coc(n2)-c2coc(n2)-c2coc1n2` [Compound 258, Macrocyclic Hexaoxazole], the melting point was 195 to 197 °C (dec.). Also, the IC50 in data set [3] came out at 25 nM. Also, the IC50 in [4] was 25 nM. Also, the IC50 in the data set with murine leukemia P388 worked out at 45 nM.

A word on the IC50: it is the midpoint of a concentration-inhibition curve. As a reminder, the GI50 is the concentration giving 50% growth inhibition. Usually melting point stands for the temperature, or range, at which the solid turns liquid.
